Results reported in patent publication US4990500A, “Oxirane pseudooligosaccharides, a process for their preparation, their use and pharmaceutical preparations” (Hoechst Aktiengesellschaft, priority 1986, dated 1991).
Counter-ions that a name gives are not always drawn.

Columns and labels:
[1] = target: T1, α-Amylase from the pig pancreas (Sus scrofa, UniProt P00690); assay: Amylase test (inhibition of α-amylase, soluble starch according to Zulkowski, dinitrosalicylic acid); type: biochemical; conditions: for specific activity, α-amylase inhibitor units (AIU) per mg: 1 AIU = amount inhibiting two amylase units to 50%, 37° C., pH 6.9
T1 construct: from tissue; host or cells: pig pancreas
T1 sequence (P00690 16-511): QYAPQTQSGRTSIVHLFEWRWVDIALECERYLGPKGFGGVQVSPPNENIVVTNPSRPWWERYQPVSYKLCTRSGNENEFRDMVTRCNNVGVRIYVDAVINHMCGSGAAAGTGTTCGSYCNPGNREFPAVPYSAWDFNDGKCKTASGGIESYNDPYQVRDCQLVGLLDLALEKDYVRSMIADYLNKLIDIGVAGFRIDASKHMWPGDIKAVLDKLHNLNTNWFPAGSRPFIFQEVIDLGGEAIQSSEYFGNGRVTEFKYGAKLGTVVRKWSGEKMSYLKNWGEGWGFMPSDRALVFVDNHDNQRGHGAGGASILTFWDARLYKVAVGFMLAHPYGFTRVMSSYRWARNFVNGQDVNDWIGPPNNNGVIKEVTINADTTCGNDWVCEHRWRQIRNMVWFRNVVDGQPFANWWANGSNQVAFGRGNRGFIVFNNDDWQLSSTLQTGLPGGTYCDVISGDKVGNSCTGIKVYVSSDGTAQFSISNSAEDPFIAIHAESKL
Method: (§1) The specific activities are 4×10^4 α-amylase inhibitor units (AIU) per mg and 1×10^4 saccharase inhibitor unit (SIU) per mg respectively for W-46 H, and 1×10^4 AIU per mg and 3×10^4 SIU per mg respectively for the inhibitor W-46 P. The activities were determined in the following tests:
An amylase inhibitor unit (AIU) is defined as the amount of inhibitor which is capable of inhibiting two amylase units (AU) to 50% under the test conditions. According to international agreement, one amylase unit is the amount enzyme which cleaves 1 μequivalent of glucoside bonds in the starch in one minute. The μgram-equivalents of cleaved glucoside bonds are determined photometrically using dinitrosalicylic acid as the μgram-equivalents of reducing sugars. The data are calculated as μmoles of maltose, determined with reference to a maltose calibration line.
The tests are carried out as follows:
α-Amylase from the pig pancreas and the solutions to be tested are preincubated together at 37° C. for 10-20 minutes in 1.0 ml of 20 mM phosphate buffer, pH 6.9+10 mM of NaCl. The enzymatic reaction is initiated according to Zulkowski by adding 1.0 ml of soluble starch (0.25% in the buffer specified). After exactly 10 minutes, the reaction is terminated using 2.0 ml of dinitrosalicylic acid coloring reagent (according to Boehringer Mannheim: BiochemicaInformation II) and the mixture is heated for 5 minutes in a boiling water bath to develop the color. After cooling, the extinction is measured at 546 nm against the blank reagent. 50% inhibition is determined graphically compared to the uninhibited enzyme reaction by means of the probability plot by using various amounts of inhibitor.

[2] = target: T2, saccharase (disaccharidases from the small intestine mucosa) (Homo sapiens, UniProt P14410); assay: Saccharase test (inhibition of saccharase, hexokinase/glucose-6-phosphate dehydrogenase method); type: biochemical; conditions: for specific activity, saccharase inhibitor units (SIU) per mg: 1 SIU = amount inhibiting two saccharase units to 50%
T2 construct: from tissue
Method: as §1
One saccharase inhibitor unit (SIU) is defined as the amount of inhibitor which is capable of inhibiting to 50% two saccharase units (SU) under the test conditions. According to international agreement, one SU is the amount of enzyme which cleaves 1 μequivalent of glycoside bonds in saccharose in one minute. The μgram-equivalents of cleaved glucoside bonds are determined photometrically using the hexokinase/glucose-6-phosphate dehydrogenase method as 2 μgram equivalents. The data are calculated as μmoles of hexoses, determined with reference to a glucose calibration curve.
The tests were carried out according to H. U. Bergmeyer, described in "Methods of Enzymatic Analysis", 3rd edition, Verlag Chemie, Weinheim, 1984, pages 96-103.

[3] = tested on: blood glucose concentration of starch-fed rats; assay: Action on the blood glucose concentration of starch-fed rats; type: in vivo, male Wistar rats; conditions: for Blood glucose: 2 g/kg starch, mean ± SEM, n = 7
Text: (§2) In order to test the pharmacological action of the α-glucosidase inhibitors, unfed, male Wistar rats weighing between 200 and 250 g were given orally an inhibitor W-46 H or W-46 P according to the invention together with 2 g of starch or sucrose per kg of body weight as a suspension in ®Tylose (methylhydroxyethylcellulose).
(§3) In these investigations, the values collated in Tables 1 (action on the blood glucose concentration of starch-fed rats) and 2 (action on the blood glucose concentration of sucrose-fed rats) were determined for inhibitor W-46 H.
(§4) A limiting value of 0.27 mg/kg of rat is calculated from the values given in Table 1 and a limiting value of 1.29 mg/kg of rat from the values given in Table 2 (the limiting value of the active ingredient is taken to mean the amount per kg of experimental animal at whose administration a clear action can still be seen after one hour).

[4] = tested on: blood glucose concentration of sucrose-fed rats; assay: Action on the blood glucose concentration of sucrose-fed rats; type: in vivo, male Wistar rats; conditions: for Blood glucose: 2 g/kg sucrose, mean ± SEM, n = 7
Text: as §2, §3, §4

experimental animals = assay: Oral administration of high doses to experimental animals (symptoms); type: in vivo; conditions: even high doses

T2 sequence (P14410 whole entry): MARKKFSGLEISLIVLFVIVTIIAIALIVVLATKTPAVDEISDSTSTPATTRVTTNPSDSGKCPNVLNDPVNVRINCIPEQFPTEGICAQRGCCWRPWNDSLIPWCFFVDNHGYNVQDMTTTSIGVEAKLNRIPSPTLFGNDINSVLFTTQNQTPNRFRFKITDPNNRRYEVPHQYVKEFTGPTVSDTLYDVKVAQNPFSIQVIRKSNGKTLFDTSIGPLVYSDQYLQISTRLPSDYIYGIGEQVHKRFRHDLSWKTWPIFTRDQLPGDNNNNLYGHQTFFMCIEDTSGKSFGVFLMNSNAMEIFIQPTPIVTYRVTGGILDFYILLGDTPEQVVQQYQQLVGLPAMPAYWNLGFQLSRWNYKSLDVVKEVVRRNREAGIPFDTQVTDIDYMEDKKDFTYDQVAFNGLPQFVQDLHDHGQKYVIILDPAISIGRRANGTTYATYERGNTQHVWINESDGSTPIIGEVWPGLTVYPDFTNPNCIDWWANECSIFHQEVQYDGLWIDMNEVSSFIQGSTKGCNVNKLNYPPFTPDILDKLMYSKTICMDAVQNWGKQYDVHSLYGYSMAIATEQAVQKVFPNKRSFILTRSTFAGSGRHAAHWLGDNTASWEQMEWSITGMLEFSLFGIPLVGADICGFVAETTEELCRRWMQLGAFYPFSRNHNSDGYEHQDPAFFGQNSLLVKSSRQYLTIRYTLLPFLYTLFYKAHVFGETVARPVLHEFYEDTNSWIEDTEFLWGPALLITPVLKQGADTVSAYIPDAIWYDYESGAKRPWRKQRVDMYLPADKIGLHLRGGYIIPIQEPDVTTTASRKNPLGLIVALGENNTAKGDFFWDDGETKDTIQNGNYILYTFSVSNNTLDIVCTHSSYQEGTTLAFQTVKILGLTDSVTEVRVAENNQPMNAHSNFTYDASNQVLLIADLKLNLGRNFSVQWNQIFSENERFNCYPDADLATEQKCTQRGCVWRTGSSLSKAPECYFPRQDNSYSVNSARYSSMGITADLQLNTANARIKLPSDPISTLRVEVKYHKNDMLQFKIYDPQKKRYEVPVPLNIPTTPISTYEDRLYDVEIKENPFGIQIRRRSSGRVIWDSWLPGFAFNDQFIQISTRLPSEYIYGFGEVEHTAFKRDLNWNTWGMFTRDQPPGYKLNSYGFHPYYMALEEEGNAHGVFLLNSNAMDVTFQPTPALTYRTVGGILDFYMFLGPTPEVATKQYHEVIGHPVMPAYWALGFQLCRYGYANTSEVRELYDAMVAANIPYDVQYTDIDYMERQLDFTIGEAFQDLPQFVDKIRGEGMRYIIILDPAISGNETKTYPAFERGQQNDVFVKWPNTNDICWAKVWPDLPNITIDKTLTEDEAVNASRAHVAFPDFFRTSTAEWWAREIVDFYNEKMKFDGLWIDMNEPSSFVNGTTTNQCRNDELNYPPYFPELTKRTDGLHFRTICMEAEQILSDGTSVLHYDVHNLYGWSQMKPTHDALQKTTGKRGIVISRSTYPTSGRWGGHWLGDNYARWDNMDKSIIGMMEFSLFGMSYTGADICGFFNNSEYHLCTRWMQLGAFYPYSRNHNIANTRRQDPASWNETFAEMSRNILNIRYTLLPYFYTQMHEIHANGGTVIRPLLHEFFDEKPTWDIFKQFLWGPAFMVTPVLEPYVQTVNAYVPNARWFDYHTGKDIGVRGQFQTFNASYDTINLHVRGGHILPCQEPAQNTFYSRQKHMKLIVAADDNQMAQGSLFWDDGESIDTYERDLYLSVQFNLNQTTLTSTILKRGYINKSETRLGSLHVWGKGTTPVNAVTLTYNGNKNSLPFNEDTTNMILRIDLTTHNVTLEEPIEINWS

CC1OC(OC2C(CO)OC(O)C(O)C2O)C(O)C(O)C1NC1C(O)C(O)C(OC2OC(CO)C(OC3OC(C)C(NC4C(O)C(O)C(O)C5(CO)OC45)C(O)C3O)C(O)C2O)C2(CO)OC12 (centres unmarked) [W-46 H glucuronate]
specific activity, α-amylase inhibitor units (AIU) per mg [1]: 3.6×10^4 AIU/mg | specific activity, saccharase inhibitor units (SIU) per mg [2]: 9×10^3 SIU/mg

CC1OC(OC2C(CO)OC(O)C(O)C2O)C(O)C(O)C1NC1C(O)C(O)C(OC2OC(CO)C(OC3OC(C)C(NC4C(O)C(O)C(O)C5(CO)OC45)C(O)C3O)C(O)C2O)C2(CO)OC12 (centres unmarked) [W-46 H]
inhibition of the α-amylase from the pancreas (in words) [1]: strongly inhibit | specific activity, α-amylase inhibitor units (AIU) per mg [1]: 4×10^4 AIU/mg | specific activity, α-amylase inhibitor units (AIU) per mg ([1]; listed as W-46 H (free base)): 4×10^4 AIU/mg | inhibition of the disaccharidases from the small intestine mucosa, in particular the saccharase (in words) [2]: strongly inhibit | specific activity, saccharase inhibitor units (SIU) per mg [2]: 1×10^4 SIU/mg | specific activity, saccharase inhibitor units (SIU) per mg ([2]; listed as W-46 H (free base)): 1×10^4 SIU/mg | minimal effective dose ([3]; Rattus norvegicus, po, 1 h, starch-fed rats, p.o., calculated from Table 1, read-out: limiting value (amount per kg at whose administration a clear action can still be seen after one hour)): 0.27 mg/kg | Blood glucose ([3]; p.o. dose 0.3 mg/kg, 0 hours): 3.77 ± 0.09 mmol/L | Blood glucose ([3]; p.o. dose 0.3 mg/kg, 0.5 hours): 5.53 ± 0.17 mmol/L | Blood glucose ([3]; p.o. dose 0.3 mg/kg, 1 hour): 5.59 ± 0.06 mmol/L | Blood glucose ([3]; p.o. dose 0.3 mg/kg, 2 hours): 5.67 ± 0.13 mmol/L | Blood glucose ([3]; p.o. dose 0.3 mg/kg, 3 hours): 4.86 ± 0.18 mmol/L | Blood glucose ([3]; p.o. dose 0.3 mg/kg, 5 hours): 4.39 ± 0.13 mmol/L | Blood glucose ([3]; p.o. dose 1.0 mg/kg, 0 hours): 3.93 ± 0.10 mmol/L | Blood glucose ([3]; p.o. dose 1.0 mg/kg, 0.5 hours): 5.04 ± 0.08 mmol/L | Blood glucose ([3]; p.o. dose 1.0 mg/kg, 1 hour): 5.07 ± 0.09 mmol/L | Blood glucose ([3]; p.o. dose 1.0 mg/kg, 2 hours): 4.99 ± 0.14 mmol/L | Blood glucose ([3]; p.o. dose 1.0 mg/kg, 3 hours): 4.57 ± 0.10 mmol/L | Blood glucose ([3]; p.o. dose 1.0 mg/kg, 5 hours): 4.13 ± 0.08 mmol/L | minimal effective dose ([4]; Rattus norvegicus, po, 1 h, sucrose-fed rats, p.o., calculated from Table 2, read-out: limiting value (amount per kg at whose administration a clear action can still be seen after one hour)): 1.29 mg/kg | Blood glucose ([4]; p.o. dose 1 mg/kg, 0 minutes): 3.99 ± 0.10 mmol/1 | Blood glucose ([4]; p.o. dose 1 mg/kg, 15 minutes): 6.07 ± 0.28 mmol/1 | Blood glucose ([4]; p.o. dose 1 mg/kg, 30 minutes): 6.01 ± 0.22 mmol/1 | Blood glucose ([4]; p.o. dose 1 mg/kg, 60 minutes): 6.34 ± 0.14 mmol/1 | Blood glucose ([4]; p.o. dose 1 mg/kg, 120 minutes): 5.45 ± 0.13 mmol/1 | Blood glucose ([4]; p.o. dose 1 mg/kg, 240 minutes): 4.57 ± 0.07 mmol/1 | Blood glucose ([4]; p.o. dose 3 mg/kg, 0 minutes): 3.94 ± 0.14 mmol/1 | Blood glucose ([4]; p.o. dose 3 mg/kg, 15 minutes): 5.71 ± 0.23 mmol/1 | Blood glucose ([4]; p.o. dose 3 mg/kg, 30 minutes): 5.53 ± 0.19 mmol/1 | Blood glucose ([4]; p.o. dose 3 mg/kg, 60 minutes): 5.47 ± 0.15 mmol/1 | Blood glucose ([4]; p.o. dose 3 mg/kg, 120 minutes): 5.20 ± 0.16 mmol/1 | Blood glucose ([4]; p.o. dose 3 mg/kg, 240 minutes): 4.83 ± 0.15 mmol/1 | Blood glucose ([4]; p.o. dose 10 mg/kg, 0 minutes): 4.01 ± 0.15 mmol/1 | Blood glucose ([4]; p.o. dose 10 mg/kg, 15 minutes): 5.06 ± 0.20 mmol/1 | Blood glucose ([4]; p.o. dose 10 mg/kg, 30 minutes): 5.11 ± 0.10 mmol/1 | Blood glucose ([4]; p.o. dose 10 mg/kg, 60 minutes): 4.82 ± 0.09 mmol/1 | Blood glucose ([4]; p.o. dose 10 mg/kg, 120 minutes): 4.50 ± 0.11 mmol/1 | Blood glucose ([4]; p.o. dose 10 mg/kg, 240 minutes): 4.29 ± 0.22 mmol/1 | striking symptoms after oral administration (experimental animals): not possible to detect striking symptoms

CC1OC(O)C(O)C(O)C1NC1C(O)C(O)C(OC2OC(CO)C(OC3OC(C)C(NC4C(O)C(O)C(O)C5(CO)OC45)C(O)C3O)C(O)C2O)C2(CO)OC12 (centres unmarked) [W-46 P]
inhibition of the α-amylase from the pancreas (in words) [1]: strongly inhibit | specific activity, α-amylase inhibitor units (AIU) per mg [1]: 1×10^4 AIU/mg | inhibition of the disaccharidases from the small intestine mucosa, in particular the saccharase (in words) [2]: strongly inhibit | specific activity, saccharase inhibitor units (SIU) per mg [2]: 3×10^4 SIU/mg | striking symptoms after oral administration (experimental animals): not possible to detect striking symptoms

CC1OC(OC2C(CO)OC(O)C(O)C2O)C(O)C(O)C1NC1C(O)C(O)C(OC2OC(CO)C(OC3OC(C)C(NC4C(O)C(O)C(O)C5(CO)OC45)C(O)C3O)C(O)C2O)C2(CO)OC12 (centres unmarked) [W-46 H sulfate]
specific activity (α-amylase inhibitor units) ([1]; sulfate, printed without per mg): 3.8×10^4 AIU | specific activity, saccharase inhibitor units (SIU) per mg [2]: 9.6×10^3 SIU/mg

CC1OC(OC2C(CO)OC(O)C(O)C2O)C(O)C(O)C1NC1C(O)C(O)C(OC2OC(CO)C(OC3OC(C)C(NC4C(O)C(O)C(O)C5(CO)OC45)C(O)C3O)C(O)C2O)C2(CO)OC12 (centres unmarked) [W-46 H chloride]
specific activity, α-amylase inhibitor units (AIU) per mg [1]: 3.9×10^4 AIU/mg | specific activity, saccharase inhibitor units (SIU) per mg [2]: 1×10^4 SIU/mg
